The test system of the assay is Pseudomonas putida (DSM 25068). Kind of assay: Minimum inhibitory concentration and synergy index (Kull) of CMIT combinations in Müller-Hinton broth microtiter plates. In kind it is cell-based. To be noted: 48 hours at 30° C.; for synergy index: SI=Qa/QA+Qb/QB. From the text: The synergism of a combination of 5-chloro-2-methylisothiazolin-3-one, containing 0.003 wt. %, in relation to the total proportion of 5-chloro-2-methyl-4-isothiazolin-3-one, of 2-methylisothiazolin-3-one, each time with a biocide/substance selected from the group of 1,2-benzisothiazolin-3-one (BIT), 2-bromo-2-nitropropane-1,3-diol (Bronopol), and zinc, was investigated for a synergistic interaction.
The test organisms used were the Gram-negative bacterium Pseudomonas putida (DSM 25068). For this, mixtures with different concentrations of the respective active substances were prepared and tested in regard to their effect on Pseudomonas putida. The testing was done in Müller-Hinton broth MHB (pH 7.0) with a cell density of 10^6 germs per ml.
The incubation time of the microtiter plates was 48 hours at 30° C. After 48 hours, the batches were evaluated for turbidity due to growth and, in addition, the optical density was determined by photometry. In this way, the minimum inhibitory concentrations (MHK) were determined for the two active substances individually and in combination.
The resulting synergism was represented numerically by calculating the synergy index (SI). The calculation was done by the customary method of F. C. Kull et al., Applied Microbiology, Vol. 9 (1961), p. 538. Loc. cit., the SI is calculated by the following formula: synergy index SI=Qa/QA+Qb/QB Qa=concentration of component A in the mixture A+B QA=concentration of component A as solitary biocide Qb=concentration of component B in the mixture A+B QB=concentration of component B as solitary biocide
If the synergy index has a value over 1, this means that an antagonism is present. If the synergy index takes on the value 1, this means that an addition of the effect of the two biocides/compounds is present. If the synergy index takes on a value below 1, this means that a synergism exists for the two biocides.

Where [1] appears, read: CMIT and BIT, below 1 = synergism.
The mark [2] stands for this setting: single agent, MHB pH 7.0, 10^6 germs per ml.
Where [3] appears, read: CMIT and Bronopol, below 1 = synergism.
[4] abbreviates: CMIT and zinc (ZnCl2), QB assumed 240 ppm.

Marks after values point to notes of the source that are not given here.

Data on 4 compounds can be found in patent publication US11116217B2, “Synergistic biocidal compositions containing 5-chloro-2-methylisothiazolin-3-one” (Thor GmbH, priority 2016, dated 2021).

In the case of `O=c1[nH]sc2ccccc12` [BIT, 1,2-benzisothiazolin-3-one], the synergy index under setting [1] was determined as 1.00. The “concentration as solitary agent indicating an end point (minimum inhibitory concentration, QA/QB)” value under setting [2] worked out at 100 ppm.

For the compound `O=[N+]([O-])C(Br)(CO)CO` [Bronopol, 2-bromo-2-nitropropane-1,3-diol], the synergy index under setting [3] is listed as 1.00. Also, the MIC (Pseudomonas putida, DSM25068, single agent, MHB pH 7.0, 10^6 germs per ml, read-out: concentration as solitary agent indicating an end point (minimum inhibitory concentration, QA/QB)) is 15 µg/mL.

Take `Cn1sc(Cl)cc1=O` [CMIT, 5-chloro-2-methylisothiazolin-3-one]: the synergy index came to 1.00 under setting [1], 1.00 under setting [3] and 1.00 under setting [4]. Also, the “concentration as solitary agent indicating an end point (minimum inhibitory concentration, QA/QB)” value under setting [2] worked out at 1.5 ppm.

On to `[Cl-].[Cl-].[Zn+2]` [Zn, zinc chloride], for which, under setting [4], the synergy index turned out to be 1.00. The “concentration as solitary agent indicating an end point (minimum inhibitory concentration, QA/QB)” value under setting [2] was > 240* ppm.
